Test system: 521955-158-R2-J5-PDC complex spheroid viability
Test: Anticancer human tumor 521955-158-R2-J5-PDC patient-derived pancreatic carcinoma cell line growth inhibition [GQUAD]
Conditions: for IC50: curve of first compound; for viability, T/C: stronger effect = lower value
Outline: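 Viability of tumor cells grown as complex spheroids with endothelial and stromal cells, exposed to drug combinations. Top concentration at or near clinical Cmax (else 10 microM), diluted in half-log increments.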

[1] = second compound 0.0316 µM, first compound 0.0316 µM
[2] = second compound 0.0316 µM, first compound 0.1 µM
[3] = second compound 0.0316 µM, first compound 0.316 µM
[4] = second compound 0.0316 µM, first compound 1 µM
[5] = second compound 0.0316 µM, first compound 3.16 µM
[6] = second compound 0.0316 µM, first compound 10 µM
[7] = second compound 0.1 µM, first compound 0.0316 µM
[8] = second compound 0.1 µM, first compound 0.1 µM
[9] = second compound 0.1 µM, first compound 0.316 µM
[10] = second compound 0.1 µM, first compound 1 µM
[11] = second compound 0.1 µM, first compound 3.16 µM
[12] = second compound 0.1 µM, first compound 10 µM
[13] = second compound 0.316 µM, first compound 0.0316 µM
[14] = second compound 0.316 µM, first compound 0.1 µM
[15] = second compound 0.316 µM, first compound 0.316 µM
[16] = second compound 0.316 µM, first compound 1 µM
[17] = second compound 0.316 µM, first compound 3.16 µM
[18] = second compound 0.316 µM, first compound 10 µM
[19] = second compound 1 µM, first compound 0.0316 µM
[20] = second compound 1 µM, first compound 0.1 µM
[21] = second compound 1 µM, first compound 0.316 µM
[22] = second compound 1 µM, first compound 1 µM
[23] = second compound 1 µM, first compound 3.16 µM
[24] = second compound 1 µM, first compound 10 µM
[25] = second compound 3.16 µM, first compound 0.0316 µM
[26] = second compound 3.16 µM, first compound 0.1 µM
[27] = second compound 3.16 µM, first compound 0.316 µM
[28] = second compound 3.16 µM, first compound 1 µM
[29] = second compound 3.16 µM, first compound 3.16 µM
[30] = second compound 3.16 µM, first compound 10 µM
[31] = second compound 10 µM, first compound 0.0316 µM
[32] = second compound 10 µM, first compound 0.1 µM
[33] = second compound 10 µM, first compound 0.316 µM
[34] = second compound 10 µM, first compound 1 µM
[35] = second compound 10 µM, first compound 3.16 µM
[36] = second compound 10 µM, first compound 10 µM
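Also: spheroids exposed to agents for one week before reading.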
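For viability, T/C in this document: 100% = DMSO vehicle control viability.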

COc1ncnc(C2CC2)c1-c1ncc2cnn(Cc3ccc(-c4nc(C(F)(F)F)cn4C(C)C)cc3)c2n1 + Cc1cnc(CNC(=O)c2c(=O)c3ccc(N4CCCN(C)CC4)nc3n3c2sc2ccccc23)cn1
IC50 (second compound 0.0316 µM): > 10000 nM | IC50 (second compound 0.1 µM): > 10000 nM | IC50 (second compound 0.316 µM): < 31.6 nM | IC50 (second compound 1 µM): < 31.6 nM | IC50 (second compound 3.16 µM): < 31.6 nM | IC50 (second compound 10 µM): < 31.6 nM | viability, T/C [1]: 92.4% | viability, T/C [2]: 73.3% | viability, T/C [3]: 96.7% | viability, T/C [4]: 71.9% | viability, T/C [5]: 94.3% | viability, T/C [6]: 85.5% | viability, T/C [7]: 58% | viability, T/C [8]: 58.6% | viability, T/C [9]: 53.1% | viability, T/C [10]: 55.9% | viability, T/C [11]: 57.2% | viability, T/C [12]: 55.2% | viability, T/C [13]: 30.3% | viability, T/C [14]: 31.6% | viability, T/C [15]: 31.4% | viability, T/C [16]: 31.5% | viability, T/C [17]: 28.1% | viability, T/C [18]: 25.6% | viability, T/C [19]: 19.3% | viability, T/C [20]: 17.7% | viability, T/C [21]: 17% | viability, T/C [22]: 17.4% | viability, T/C [23]: 18.8% | viability, T/C [24]: 16.6% | viability, T/C [25]: 14.5% | viability, T/C [26]: 14.3% | viability, T/C [27]: 16.4% | viability, T/C [28]: 13.2% | viability, T/C [29]: 13.7% | viability, T/C [30]: 12.8% | viability, T/C [31]: 13% | viability, T/C [32]: 11.2% | viability, T/C [33]: 9.95% | viability, T/C [34]: 13.9% | viability, T/C [35]: 6.73% | viability, T/C [36]: 6.37%

Cc1[nH]c2ccccc2c1CCNCc1ccc(/C=C/C(=O)NO)cc1 + Cc1cnc(CNC(=O)c2c(=O)c3ccc(N4CCCN(C)CC4)nc3n3c2sc2ccccc23)cn1
IC50 (second compound 0.0316 µM): 71.3 nM | IC50 (second compound 0.1 µM): 35.1 nM | IC50 (second compound 0.316 µM): < 0.999 nM | IC50 (second compound 1 µM): < 0.999 nM | IC50 (second compound 3.16 µM): < 0.999 nM | IC50 (second compound 10 µM): < 0.999 nM | viability, T/C (second compound 0.0316 µM, first compound 0.000999 µM): 76.2% | viability, T/C (second compound 0.0316 µM, first compound 0.00316 µM): 66.1% | viability, T/C (second compound 0.0316 µM, first compound 0.00999 µM): 92.3% | viability, T/C [1]: 75.6% | viability, T/C (second compound 0.0316 µM, first compound 0.0999 µM): 39.2% | viability, T/C [3]: 5.94% | viability, T/C (second compound 0.1 µM, first compound 0.000999 µM): 64.7% | viability, T/C (second compound 0.1 µM, first compound 0.00316 µM): 57.7% | viability, T/C (second compound 0.1 µM, first compound 0.00999 µM): 57.1% | viability, T/C [7]: 54% | viability, T/C (second compound 0.1 µM, first compound 0.0999 µM): 33.2% | viability, T/C [9]: 2.12% | viability, T/C (second compound 0.316 µM, first compound 0.000999 µM): 26.8% | viability, T/C (second compound 0.316 µM, first compound 0.00316 µM): 31.2% | viability, T/C (second compound 0.316 µM, first compound 0.00999 µM): 34% | viability, T/C [13]: 37.1% | viability, T/C (second compound 0.316 µM, first compound 0.0999 µM): 26.6% | viability, T/C [15]: 1.88% | viability, T/C (second compound 1 µM, first compound 0.000999 µM): 16.8% | viability, T/C (second compound 1 µM, first compound 0.00316 µM): 21.2% | viability, T/C (second compound 1 µM, first compound 0.00999 µM): 18.5% | viability, T/C [19]: 20.1% | viability, T/C (second compound 1 µM, first compound 0.0999 µM): 18.6% | viability, T/C [21]: 0.1% | viability, T/C (second compound 3.16 µM, first compound 0.000999 µM): 12.1% | viability, T/C (second compound 3.16 µM, first compound 0.00316 µM): 14.4% | viability, T/C (second compound 3.16 µM, first compound 0.00999 µM): 14.7% | viability, T/C [25]: 13.9% | viability, T/C (second compound 3.16 µM, first compound 0.0999 µM): 6.38% | viability, T/C [27]: 0.11% | viability, T/C (second compound 10 µM, first compound 0.000999 µM): 9.65% | viability, T/C (second compound 10 µM, first compound 0.00316 µM): 11.8% | viability, T/C (second compound 10 µM, first compound 0.00999 µM): 14.8% | viability, T/C [31]: 13.8% | viability, T/C (second compound 10 µM, first compound 0.0999 µM): 5.03% | viability, T/C [33]: 0.18%

O=C(NO)c1cnc(N2CCN(S(=O)(=O)c3ccc4ccccc4c3)CC2)nc1 + Cc1cnc(CNC(=O)c2c(=O)c3ccc(N4CCCN(C)CC4)nc3n3c2sc2ccccc23)cn1
IC50 (second compound 0.0316 µM): 233 nM | IC50 (second compound 0.1 µM): 167 nM | IC50 (second compound 0.316 µM): < 31.6 nM | IC50 (second compound 1 µM): < 31.6 nM | IC50 (second compound 3.16 µM): < 31.6 nM | IC50 (second compound 10 µM): < 31.6 nM | viability, T/C [1]: 106% | viability, T/C [2]: 78.9% | viability, T/C [3]: 42.1% | viability, T/C [4]: 5.64% | viability, T/C [5]: 0.04% | viability, T/C [6]: 0.1% | viability, T/C [7]: 53.6% | viability, T/C [8]: 51.4% | viability, T/C [9]: 47% | viability, T/C [10]: 6.79% | viability, T/C [11]: 0.05% | viability, T/C [12]: 0.08% | viability, T/C [13]: 27.5% | viability, T/C [14]: 36.1% | viability, T/C [15]: 29.8% | viability, T/C [16]: 1.02% | viability, T/C [17]: 0.05% | viability, T/C [18]: 0.07% | viability, T/C [19]: 20.1% | viability, T/C [20]: 22.9% | viability, T/C [21]: 12.9% | viability, T/C [22]: 0.1% | viability, T/C [23]: 0.04% | viability, T/C [24]: 0.08% | viability, T/C [25]: 11.7% | viability, T/C [26]: 17.4% | viability, T/C [27]: 4.19% | viability, T/C [28]: 0.1% | viability, T/C [29]: 0.07% | viability, T/C [30]: 0.11% | viability, T/C [31]: 11.8% | viability, T/C [32]: 8.03% | viability, T/C [33]: 2.82% | viability, T/C [34]: 0.14% | viability, T/C [35]: 0.15% | viability, T/C [36]: 0.18%

Source: PubChem BioAssay AID2060495 (Molecular Pharmacology Branch, DTP, NCI, 2025)
